Here are results for six molecules from US12427212B2, “Nectin-4 binding miniproteins, conjugates and uses thereof” (Aktis Oncology, Inc., priority 2023, dated 2025).

Bridges are numbered along the chain shown (N, C = ends). [ ]: non-standard residue; d: D form. The star is where a group is joined. DOTA = O=C(O)CN1CCN(CC(=O)O)CCN(CC(=O)*)CCN(CC(=O)O)CC1; Arg(Me2s) = CN=C(NC)NCCC[C@H](N)C(=O)O; PEG4 = NCCOCCOCCOCCOCCC(=O)O

A short description of data set [1]: In vitro metabolic stability in serum/plasma (percent parent remaining, LC-MS). The data set is classed as in vitro ADME. Particulars: mouse. The protocol: Exemplary miniproteins were spiked into biological matrices at initial concentration between 1-2 μM. Tested matrices were varied by species (mouse, rat, human) and type (plasma, serum, and kidney brush border membrane (kBBM) preparations tested each from 0.625-100 μg/mL protein content). Tested conditions were incubated with miniproteins at 37° C. for 4 h. At collection points of 0, 15, 30, 60, 120, 240 minutes, 50 μL of each condition were quenched by organic solvent (methanol or acetonitrile) or the addition of 4% phosphoric acid solution followed by solid-phase extraction. Fractions of each quenched timepoint were subsequently assayed for parent miniproteins concentration by high resolution LC-MS. Percent-parent-remaining-time plots were constructed from the ratio of each given time collection to the time-zero parent miniprotein. Percent-parent-remaining in mouse serum and plasma for exemplary miniproteins are recorded in TABLE 11.

The nature of data set [2]: In vivo biodistribution of 111In-labeled miniproteins by SPECT/CT, HT-1376 xenograft. Further details: species or system mouse. The note with it: female, athymic nude, mouse, in vivo. An excerpt: HT-1376 is a human cell line that expresses Nectin-4.
Humane endpoints: All animals were euthanized following the final imaging time point and carcasses were discarded according to IACUC protocols.
Image Processing: Images were generated as SPECT/CT pairs with the SPECT reported in units of activity.
Image generation: After the preprocessing described in A, individual maximum intensity projections (MIPs) were created with VivoQuant software for each subject at each time point and scaled in percent injected dose per gram (% ID/g). The CT for each image was windowed from −500 to 4500 Hounsfield Units (HU). The SPECT was windowed at various ranges to highlight different regions of uptake. Images were then stitched together using Image Magick based python tools to create montages of subjects over time and time points over groups.

The target of the next data set is T1, Nectin-4 (Homo sapiens, UniProt Q96NY8).
T1 sequence (Q96NY8 32-510): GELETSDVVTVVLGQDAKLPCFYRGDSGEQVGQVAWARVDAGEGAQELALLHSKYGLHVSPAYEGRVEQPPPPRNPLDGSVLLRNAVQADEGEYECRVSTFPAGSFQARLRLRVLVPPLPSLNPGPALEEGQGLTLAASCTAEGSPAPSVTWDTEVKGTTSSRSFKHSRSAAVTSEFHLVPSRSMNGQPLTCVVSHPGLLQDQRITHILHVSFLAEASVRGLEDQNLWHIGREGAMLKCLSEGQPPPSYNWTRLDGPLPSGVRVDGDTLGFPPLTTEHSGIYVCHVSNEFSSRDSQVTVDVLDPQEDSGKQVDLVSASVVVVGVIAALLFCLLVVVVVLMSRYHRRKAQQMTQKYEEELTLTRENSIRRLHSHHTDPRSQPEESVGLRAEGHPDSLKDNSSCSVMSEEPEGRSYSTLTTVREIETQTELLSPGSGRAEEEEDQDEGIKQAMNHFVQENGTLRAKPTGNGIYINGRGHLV
Nature of the data set: DELFIA whole cell binding assay, equilibrium binding affinity (KD), Table 2B. The note with it: Table 2B, binding to Nectin-4; read-out: Binding Affinity (KD). The protocol: A whole cell binding assay was used to estimate the equilibrium binding affinity (KD) or binding inhibition constant (Ki) of miniprotein ligands to cells expressing a target of interest. Cells were dispensed into a 384-well plate and incubated at 37° C., in 5% CO2 overnight. The next day cells were gently washed once in assay buffer prior to addition of europium chelated ligand. For KD determination, a miniprotein conjugated with europium chelate (DOTA or DTPA) in the presence or absence of 100-fold excess un-conjugated ligand was incubated with cells over 12 different concentrations ranging from 100 times below and above expected KD values. For Ki determination, a single concentration (KD equivalent concentration) of europium-chelate miniprotein was added to each well followed immediately by the addition of unconjugated competing ligand over 12 different concentrations ranging from 100 times below and above expected Ki values as before. The plate was incubated for 1.5 h at room temperature to reach binding equilibrium. Cells were then washed three times at room temperature with 1×PBS followed by the addition of 2 M HCl and incubated for two h at 37° C. Following this step, 2 M NaOH and fluorescent inducer solution were added to each well and incubated for 30 minutes at room temperature according to the manufacturer's protocol (Perkin-ELMER DELFIA assay). Plates were read on an Envision plate reader and a curve-fitting model was applied to estimate KD and Ki values using GraphPad Prism software. Mean DELFIA K; values for exemplary miniproteins are recorded in TABLE 9A.

Broadly, the half-life is the time needed for the level to fall by half in the phase considered. The tissue uptake is the percentage of the injected dose found per gram of tissue. Read a low tissue uptake as low uptake. By Kd is commonly meant the constant that tells how readily two partners part at equilibrium.

Consider `CC[C@H](C)[C@@H]1NC(=O)[C@H](Cc2ccc(O)cc2)NC(=O)[C@H](CC(=O)O)NC(=O)[C@@H]2CSSC[C@@H](C(=O)N[C@@H](CO)C(=O)O)NC(=O)CNC(=O)[C@H](CC(C)C)NC(=O)[C@H](CC(N)=O)NC(=O)[C@H](CC(=O)O)NC(=O)[C@H](CC(C)C)NC(=O)[C@H]([C@@H](C)CC)NC(=O)[C@H](CCC(=O)O)NC(=O)[C@H](CCC(=O)O)NC(=O)[C@H]([C@@H](C)CC)NC(=O)[C@H](CSSC[C@H](NC(=O)CCOCCOCCOCCOCCNC(=O)CN3CCN(CC(=O)O)CCN(CC(=O)O)CCN(CC(=O)O)CC3)C(=O)N[C@@H](CCC(=O)O)C(=O)N[C@@H](Cc3ccc(O)cc3)C(=O)N[C@@H](CC(=O)O)C(=O)N[C@@H](CCC(=O)O)C(=O)N[C@@H](CCC(N)=O)C(=O)N[C@@H](Cc3ccccc3)C(=O)N[C@@H](Cc3ccccc3)C(=O)N[C@@H]([C@@H](C)O)C(=O)N[C@@H](C)C(=O)N[C@@H](CC(C)C)C(=O)N[C@@H](CCCCN)C(=O)N[C@@H](CCCNC(=N)N)C(=O)N[C@@H](CC(C)C)C(=O)N[C@@H](CCCNC(=N)N)C(=O)NCC(=O)N[C@@H](CC(=O)O)C(=O)N[C@@H](CC(=O)O)C(=O)N[C@@H]([C@@H](C)CC)C(=O)N2)NC(=O)[C@H](CC(C)C)NC(=O)CNC(=O)[C@@H]2CCCN2C(=O)[C@H](CC(C)C)NC(=O)[C@H](Cc2ccc(O)cc2)NC(=O)[C@H](CCC(N)=O)NC(=O)[C@H](Cc2ccccc2)NC(=O)[C@H](CO)NC(=O)[C@H](C)NC(=O)[C@H](CCC(N)=O)NC1=O` [Compound C236], for which, in data set [1], the half-life was above 720 min. Also, the half-life in data set [1] (plasma) is above 720 min. In addition, in data set [2], the tissue uptake at 4 h is 65.1 %ID/g and the tissue uptake at 24 h was 42.1 %ID/g.
`CC[C@H](C)[C@@H]1NC(=O)[C@H](Cc2ccc(O)cc2)NC(=O)[C@H](CCC(=O)O)NC(=O)[C@@H]2CSSC[C@@H](C(=O)N[C@@H](CO)C(=O)O)NC(=O)CNC(=O)[C@H](CC(C)C)NC(=O)[C@H](CC(N)=O)NC(=O)[C@H](CC(=O)O)NC(=O)[C@H](CC(C)C)NC(=O)[C@H]([C@@H](C)CC)NC(=O)[C@H](CCC(=O)O)NC(=O)[C@H](CCC(=O)O)NC(=O)[C@H]([C@@H](C)CC)NC(=O)[C@H](CSSC[C@H](NC(=O)CCOCCOCCOCCOCCNC(=O)CN3CCN(CC(=O)O)CCN(CC(=O)O)CCN(CC(=O)O)CC3)C(=O)N[C@@H](CC(=O)O)C(=O)N[C@@H](Cc3ccc(O)cc3)C(=O)N[C@@H](CC(=O)O)C(=O)N[C@@H](CCC(=O)O)C(=O)N[C@@H](CCC(N)=O)C(=O)N[C@@H](Cc3ccccc3)C(=O)N[C@@H](Cc3ccccc3)C(=O)N[C@@H]([C@@H](C)O)C(=O)N[C@@H](C)C(=O)N[C@@H](CC(C)C)C(=O)N[C@@H](CCCCN)C(=O)N[C@@H](CCCNC(=N)N)C(=O)N[C@@H](CC(C)C)C(=O)N[C@@H](CCCNC(=N)N)C(=O)NCC(=O)NCC(=O)N[C@@H](CC(=O)O)C(=O)N[C@@H]([C@@H](C)CC)C(=O)N2)NC(=O)[C@H](CC(C)C)NC(=O)CNC(=O)[C@@H]2CCCN2C(=O)[C@H](CC(C)C)NC(=O)[C@H](Cc2ccc(O)cc2)NC(=O)[C@H](CCC(N)=O)NC(=O)[C@H](Cc2ccccc2)NC(=O)[C@H](CO)NC(=O)[C@H](C)NC(=O)[C@H](CCC(N)=O)NC1=O` [Compound C241]: the half-life in data set [1] was above 720 min. Moreover, the half-life in data set [1] (plasma) was above 720 min. Further, in data set [2], the tissue uptake at 4 h was determined as 60.1 %ID/g and the tissue uptake at 24 h was found to be 38.3 %ID/g.
With `CC[C@H](C)[C@@H]1NC(=O)CNC(=O)[C@@H]2CCCN2C(=O)[C@H](CC(C)C)NC(=O)[C@H](Cc2ccc(O)cc2)NC(=O)[C@H](CC(N)=O)NC(=O)[C@H](Cc2ccccc2)NC(=O)[C@H](C)NC(=O)[C@H](CCC(N)=O)NC(=O)[C@H](CCC(N)=O)NC(=O)[C@H]([C@@H](C)CC)NC(=O)[C@H](Cc2ccc(O)cc2)NC(=O)[C@H](Cc2ccc(O)cc2)NC(=O)[C@@H]2CSSC[C@@H](C(=O)O)NC(=O)CNC(=O)[C@H](CC(C)C)NC(=O)[C@H](CC(N)=O)NC(=O)[C@H](CC(=O)O)NC(=O)[C@H](CC(C)C)NC(=O)[C@H]([C@@H](C)CC)NC(=O)[C@H](CCC(=O)O)NC(=O)[C@H](CCC(=O)O)NC(=O)[C@H]([C@@H](C)CC)NC(=O)[C@H](CSSC[C@H](NC(C)=O)C(=O)N[C@@H](CCC(=O)O)C(=O)N[C@@H](Cc3ccc(O)cc3)C(=O)N[C@@H](CC(=O)O)C(=O)N[C@@H](CCC(=O)O)C(=O)N[C@@H](CCC(=O)O)C(=O)N[C@@H](Cc3ccccc3)C(=O)N[C@@H](Cc3ccccc3)C(=O)N[C@@H]([C@@H](C)O)C(=O)N[C@@H](C)C(=O)N[C@@H](CC(C)C)C(=O)N[C@@H](CCCCN)C(=O)N[C@@H](CCCCN)C(=O)N[C@@H](CC(C)C)C(=O)N[C@@H](CCCNC(=N)N)C(=O)NCC(=O)NCC(=O)N[C@@H](CC(=O)O)C(=O)N[C@@H]([C@@H](C)CC)C(=O)N2)NC1=O` [Compound C104], the Kd at Nectin-4 worked out at 3.7 nM. Besides, in data set [2], the tissue uptake at 4 h came to 69.6 %ID/g and the tissue uptake at 24 h amounted to 40.6 %ID/g.
With `CC[C@H](C)[C@@H]1NC(=O)[C@H](Cc2ccc(O)cc2)NC(=O)[C@H](CCC(=O)O)NC(=O)[C@@H]2CSSC[C@@H](C(=O)N[C@@H](CO)C(=O)O)NC(=O)CNC(=O)[C@H](CC(C)C)NC(=O)[C@H](CC(N)=O)NC(=O)[C@H](CC(=O)O)NC(=O)[C@H](CC(C)C)NC(=O)[C@H]([C@@H](C)CC)NC(=O)[C@H](CCC(=O)O)NC(=O)[C@H](CCC(=O)O)NC(=O)[C@H]([C@@H](C)CC)NC(=O)[C@H](CSSC[C@H](NC(=O)CCOCCOCCOCCOCCNC(=O)CN3CCN(CC(=O)O)CCN(CC(=O)O)CCN(CC(=O)O)CC3)C(=O)N[C@@H](CC(=O)O)C(=O)N[C@@H](Cc3ccc(O)cc3)C(=O)N[C@@H](CC(=O)O)C(=O)N[C@@H](CCC(=O)O)C(=O)N[C@@H](CCC(N)=O)C(=O)N[C@@H](Cc3ccccc3)C(=O)N[C@@H](Cc3ccccc3)C(=O)N[C@@H]([C@@H](C)O)C(=O)N[C@@H](C)C(=O)N[C@@H](CC(C)C)C(=O)N[C@@H](C)C(=O)N[C@@H](CCCNC(=N)N)C(=O)N[C@@H](CC(C)C)C(=O)N[C@@H](CCCNC(=N)N)C(=O)NCC(=O)N[C@@H](C)C(=O)N[C@@H](CC(=O)O)C(=O)N[C@@H]([C@@H](C)CC)C(=O)N2)NC(=O)[C@H](CCC(=O)O)NC(=O)CNC(=O)[C@@H]2CCCN2C(=O)[C@H](CC(C)C)NC(=O)[C@H](Cc2ccc(O)cc2)NC(=O)[C@H](CCC(N)=O)NC(=O)[C@H](Cc2ccccc2)NC(=O)[C@H](CO)NC(=O)[C@H](C)NC(=O)[C@H](CCC(N)=O)NC1=O` [Compound C245], the half-life in data set [1] is above 720 min. The half-life in data set [1] (plasma) was above 720 min. Besides, in data set [2], the tissue uptake at 4 h turned out to be 61 %ID/g and the tissue uptake at 24 h is 33.5 %ID/g.
Consider “{DOTA-PEG4}-CEYDEQFFTALARLRGGDICEYIQARFQYLPGLCIEEILDNLGCS-OH (disulfide 1-34, 20-44 (inferred)) [Compound C265]”, for which the half-life in data set [1] and in data set [1] (plasma) was above 720 min throughout.
For the molecule “{DOTA-PEG4}-CEYDEQFFTALARLRGGDICEYIQA[Arg(Me2s)]FQYLPGLCIEEILDNLGCS-OH (disulfide 1-34, 20-44 (inferred)) [Compound C268]”, the half-life in data set [1] and in data set [1] (plasma) was above 720 min each time.
